Test results reported in US10894807B2 (Siemens Medical Solutions USA, Inc., priority 2011, dated 2021).
Where a SMILES comes first, the peptide text is derived from it. [ ]: non-standard residue; d: D form. The star is where a group is joined. Boc = CC(C)(C)OC(=O)*; Nlys = NCCCCNCC(=O)O

Target: human PSMA (Homo sapiens (Human), UniProt Q04609)
Experiment: Enzymatic assay for in vitro evaluation of PSMA inhibitors (fluorescent assay of PSMA activity, NAAG substrate, OPA detection of glutamate)
Format: biochemical
Protocol: Enzymatic Assay for In Vitro Evaluation of PSMA Inhibitors
The inhibitory activity of all compounds was determined using a fluorescent assay of human PSMA activity. The enzyme used in the assay was purchased from R&D Systems and stored at −80° C. The PSMA activity was assayed in a two-step process. In the first step, aliquots of enzyme (0.2 μg/mL) were incubated for 1 h at 37° C. in 50 mM HEPES, 0.1 M NaCl, pH 7.5, in the presence of 20 μM NAAG and the given inhibitor, in a volume of 250 μL, to allow for the accumulation of glutamate produced in the PSMA reaction. In the second step, the amount of accumulated glutamate was measured using the OPA reaction, and the fluorescence was read with a SpectraMax fluorescent plate reader using excitation at 330 nm and emission at 450 nm. The final Ki values for each inhibitor were calculated from the respective IC50 values using the Cheng and Prusoff equation.

human PSMA, sequence (Q04609 whole entry): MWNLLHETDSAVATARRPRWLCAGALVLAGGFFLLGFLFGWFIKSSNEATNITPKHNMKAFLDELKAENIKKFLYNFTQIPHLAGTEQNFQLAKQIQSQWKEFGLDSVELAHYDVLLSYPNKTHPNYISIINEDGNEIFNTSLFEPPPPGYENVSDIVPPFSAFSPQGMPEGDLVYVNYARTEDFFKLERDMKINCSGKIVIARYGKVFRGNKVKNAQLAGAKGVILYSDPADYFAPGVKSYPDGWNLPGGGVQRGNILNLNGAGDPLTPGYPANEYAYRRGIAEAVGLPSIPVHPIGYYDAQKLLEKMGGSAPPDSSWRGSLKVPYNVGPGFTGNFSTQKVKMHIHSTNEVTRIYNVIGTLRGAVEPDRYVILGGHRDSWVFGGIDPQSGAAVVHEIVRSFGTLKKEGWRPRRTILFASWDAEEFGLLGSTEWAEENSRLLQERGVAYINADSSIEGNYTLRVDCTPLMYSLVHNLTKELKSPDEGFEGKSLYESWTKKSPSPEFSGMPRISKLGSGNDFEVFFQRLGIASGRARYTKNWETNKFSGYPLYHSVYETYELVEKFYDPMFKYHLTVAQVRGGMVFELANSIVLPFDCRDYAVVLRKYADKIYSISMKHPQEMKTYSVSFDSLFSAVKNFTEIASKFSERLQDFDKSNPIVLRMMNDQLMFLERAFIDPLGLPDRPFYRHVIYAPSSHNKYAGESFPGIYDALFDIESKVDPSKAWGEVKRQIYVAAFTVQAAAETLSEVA

Row | Compound | PSMA Blkg % (10 μM) (compound at 10 μM) | PSMA Blkg % (1.0 μM) | other results
1 | CC(=O)N(CCCCNC(=O)OC(C)(C)C)CC(=O)N[C@@H](CCC(=O)O)C(=O)O [P040, (S)-2-(2-(N-(4-(tert-Butoxycarbonylamino)butyl)acetamido)acetamido)pentanedioic Acid] (Ac-[Nlys](Boc)-Glu-OH) | 42% |  | 
2 | O=C(O)CC[C@H](NC(=O)N[C@@H](CCCCNC(=O)N1CCN(C(=O)c2cc(C(=O)O)cc(-n3cc(CCCF)nn3)c2)CC1)C(=O)O)C(=O)O [P262, (S)-2-(3-((S)-1-Carboxy-5-(4-(3-carboxy-5-(4-(3-fluoropropyl)-1H-1,2,3-triazol-1-yl)benzoyl)piperazine-1-carboxamido)pentyl)ureido)pentanedioic Acid] |  | 96% | 
3 | C[C@H](NC(=O)N[C@@H](CCC(=O)O)C(=O)O)C(=O)NCCF [P082, (S)-2-(3-((S)-1-((2-Fluoroethyl)amino)-1-oxopropan-2-yl)ureido)pentanedioic Acid] | 4% |  | 
4 | O=C(O)CC[C@H](NC(=O)N[C@@H](CSCc1ccc(F)cc1)C(=O)O)C(=O)O [P001] | 97% |  | Ki: 50 nM
5 | NS(=O)(=O)N(OC(=O)OCc1ccccc1)[C@@H](CCC(=O)O)C(=O)O [P180] | 5% |  | 
6 | CC(C)(C)OC(=O)NCCCC[C@H](NC(=O)N[C@@H](CCC(=O)O)C(=O)O)C(=O)O [P039, (10S,14S)-2,2-Dimethyl-4,12-dioxo-3-oxa-5,11,13-triazahexadecane-10,14,16-tricarboxylic Acid] | 77% |  | 
7 | [N-]=[N+]=Nc1ccc(CCCC(=O)NC(Cc2cn(C(CCC(=O)O)C(=O)O)nn2)C(=O)O)cc1 (centres unmarked) [P137] | 3% |  | 
8 | O=C(O)CCC(CP(=O)(O)OC[C@@H]1CCCN1C(=O)CCc1ccc(-n2cc(CCCF)nn2)cc1)C(=O)O (stereo partly drawn) [P206, 2-(((((S)-1-(3-(4-(4-(3-Fluoropropyl)-1H-1,2,3-triazol-1-yl)phenyl)propanoyl)pyrrolidin-2-yl)methoxy)(hydroxy)phosphoryl)methyl)pentanedioic Acid] |  |  | PSMA Blkg % (10 μM): 81%
9 | O=C(O)CC[C@H](NC(=O)N[C@@H](CCCCNC(=O)N1CCN(C(=O)c2cc(C(=O)N3CCN(C(=O)NCCCC[C@@H](NC(=O)N[C@H](CCC(=O)O)C(=O)O)C(=O)O)CC3)cc(-n3cc(CCCF)nn3)c2)CC1)C(=O)O)C(=O)O [P263, (2S,2′S)-2,2′-(((((1S,1′S)-((4,4′-(5-(4-(3-Fluoropropyl)-1H-1,2,3-triazol-1-yl)-isophthaloyl)bis(piperazine-1,1′-carbonyl))bis(azanediyl))bis(1-carboxypentane-5,1-diyl))bis(azanediyl))bis(carbonyl))bis(azanediyl))dipentanedioic Acid] |  | 98% | Ki: 1.3 nM
10 | CN(C(=O)N[C@@H](CCC(=O)O)C(=O)O)[C@@H](CCCCNC(=O)c1ccc(F)cc1)C(=O)O [P156, (S)-2-(3-((S)-1-Carboxy-5-(4-fluorobenzamido)pentyl)-3-methylureido)pentanedioic Acid] | 87% |  | Ki: 219 nM
11 | CCN(CC)C(=O)c1cc(C(=O)NCCCC[C@H](NC(=O)N[C@@H](CCC(=O)O)C(=O)O)C(=O)O)cc(-n2cc(CCCF)nn2)c1 [P260, (S)-2-(3-((S)-1-Carboxy-5-(3-(diethylcarbamoyl)-5-(4-(3-fluoropropyl)-1H-1,2,3-triazol-1-yl)benzamido)pentyl)ureido)pentanedioic Acid] |  | 81% | 
12 | O=C(O)CC[C@H](NC(=S)N(O)[C@@H](CCCCNC(=O)c1ccc(-n2cc(CCCF)nn2)cc1)C(=O)O)C(=O)O [P146, (S)-2-(3-((S)-1-Carboxy-5-(4-(4-(3-fluoropropyl)-1H-1,2,3-triazol-1-yl)benzamido)pentyl)-3-hydroxythioureido)pentanedioic Acid] | 45% |  | 
13 | [N-]=[N+]=Nc1ccc(C(=O)NCCCC[C@@H](C(=O)O)N2C(=O)CC(=O)N([C@@H](CCC(=O)O)C(=O)O)C2=O)cc1 [P057, (S)-2-(3-((S)-5-(4-Azidobenzamido)-1-carboxypentyl)-2,4,6-trioxotetrahydropyrimidin-1(2H)-yl)pentanedioic Acid] | 32% |  | 
14 | O=C(O)CC[C@H](NC(=O)C[C@@H](NC(=O)CCNC(=O)c1ccc(-n2cc(CCCF)nn2)cc1)C(=O)O)C(=O)O [P245, (S)-2-((R)-3-Carboxy-3-(3-(4-(4-(3-fluoropropyl)-1H-1,2,3-triazol-1-yl)benzamido)propanamido)-propanamido)pentanedioic Acid] |  | 62% | Ki: 156 nM
15 | O=C(O)CCC(CP(=O)(O)NCCc1ccccc1)C(=O)O (centres unmarked) [P197, 2-((Hydroxy(phenethylamino)phosphoryl)methyl)pentanedioic Acid] |  |  | Ki: > 3000 nM; PSMA Blkg % (10 μM): 22%
16 | CC(C)(C)OC(=O)NCCCCN(CC(=O)N[C@@H](CCC(=O)O)C(=O)O)C(N)=O [P047, (S)-2-(2-(1-(4-(tert-Butoxycarbonylamino)butyl)ureido)acetamido)pentanedioic Acid] | 0% |  | 
17 | O=C(O)CC[C@@H](C(=O)O)N1C(=O)/C(=C(\O)CCCc2ccc(-n3cc(CCCF)nn3)cc2)C(=O)N(Cc2ccccc2)C1=O [P101, (S,Z)-2-(3-Benzyl-5-(4-(4-(4-(3-fluoropropyl)-1H-1,2,3-triazol-1-yl)phenyl)-1-hydroxybutylidene)-2,4,6-trioxotetrahydropyrimidin-1(2H)-yl)pentanedioic Acid] | 0% |  | 
18 | [N-]=[N+]=Nc1cc(C(=O)NCCCCCC(=O)N[C@@H](CCC(=O)O)C(=O)O)cc(C(=O)NCCCCCC(=O)N[C@@H](CCC(=O)O)C(=O)O)c1 [P289, (2S,2′S)-2,2′-((6,6′-((5-Azidoisophthaloyl)bis(azanediyl))bis(hexanoyl))-bis(azanediyl))dipentanedioic Acid] |  | 0% | 
19 | O=C(O)CC[C@H](NC(=O)C[C@@H](NC(=O)CCc1ccc(-n2cc(CCCF)nn2)cc1)C(=O)O)C(=O)O [P220, (S)-2-((R)-3-Carboxy-3-(3-(4-(4-(3-fluoropropyl)-1H-1,2,3-triazol-1-yl)phenyl)-propanamido)-propanamido)pentanedioic Acid] |  | 34% | 
20 | O=C(O)CC[C@H](NC(=O)N[C@@H](Cc1ccc(NC(=O)N2CCN(C(=O)OCc3ccccc3)CC2)cc1)C(=O)O)C(=O)O [P222] |  | 98% | Ki: 0.56 nM
21 | O=C(O)CC[C@H](NC(=O)N(O)[C@@H](CCCCNC(=O)Cn1cc(CCCF)nn1)C(=O)O)C(=O)O [P166, (S)-2-(3-((S)-1-Carboxy-5-(2-(4-(3-fluoropropyl)-1H-1,2,3-triazol-1-yl)acetamido)pentyl)-3-hydroxyureido)pentanedioic Acid] | 87% |  | Ki: > 375 nM
22 | O=C(O)CC[C@H](NC(=O)N(O)CCCc1ccccc1)C(=O)O [P038, (S)-2-(3-Hydroxy-3-(3-phenylpropyl)ureido)pentanedioic Acid] | 2% |  | 
23 | CCC1(CC)C(=O)N([C@@H](CCCCNC(=O)NCc2ccccc2)C(=O)O)C(=O)N([C@@H](CCC(=O)O)C(=O)O)C1=O [P108, (S)-2-(3-((S)-5-(3-benzylureido)-1-carboxypentyl)-5,5-diethyl-2,4,6-trioxotetrahydropyrimidin-1(2H)-yl)pentanedioic Acid] | 11% |  | 
24 | O=C(O)CC[C@H](NC(=O)N[C@@H](CCCCNC(=O)c1ccc(F)nc1)C(=O)O)C(=O)O [P002, (S)-2-(3-((S)-1-Carboxy-5-(6-fluoronicotinamido)pentyl)ureido)pentanedioic Acid] | 92% |  | 
25 | O=C(O)CC[C@H](NC(=O)N(O)[C@@H](CCCCNC(=O)c1ccc(F)nc1)C(=O)O)C(=O)O [P182, (S)-2-(3-((S)-1-Carboxy-5-(6-fluoronicotinamido)pentyl)-3-hydroxyureido)pentanedioic Acid] | 92% |  | 
26 | CN(C(=O)N[C@@H](CCC(=O)O)C(=O)O)[C@@H](CCCCNC(=O)c1ccc(F)nc1)C(=O)O [P133, (S)-2-(3-((S)-1-Carboxy-5-(6-fluoronicotinamide)pentyl)-3-methylureido)-pentanedioic Acid] | 95% |  | Ki: 125 nM
27 | O=C(O)CC[C@H](NC(=O)N[C@@H](CCCCNc1nc(F)ccc1[N+](=O)[O-])C(=O)O)C(=O)O [P265, (S)-2-(3-((S)-1-Carboxy-5-((6-fluoro-3-nitropyridin-2-yl)amino)pentyl)ureido)pentanedioic Acid] |  | 97% | 
28 | O=C(O)CCC(NC(=O)C(=O)N[C@@H](CCC(=O)O)C(=O)O)C(=O)O (stereo partly drawn) [P098, (2′S)-2,2′-(Oxalylbis(azanediyl))dipentanedioic Acid] | 23% |  | 
29 | (9S,13S)-9-Carboxy-13-((1-(2-fluoroethyl)-1H-1,2,3-triazol-4-yl)methyl)-3,11-dioxo-1-phenyl-2-oxa-4,10,12-triazatetradecan-14-oic Acid [P187] | 77% |  | 
30 | O=C(O)CC[C@H](NC(=O)C[C@@H](NC(=O)c1ccc(-n2cc(CCCF)nn2)cc1)C(=O)O)C(=O)O [P221, (S)-2-((R)-3-Carboxy-3-(4-(4-(3-fluoropropyl)-1H-1,2,3-triazol-1-yl)benzamido)propanamido)-pentanedioic Acid] |  | 15% | 
